Measured values: PMC8301260 (Medicinal chemistry research : an international journal for …, 2016)
“Also recorded” adds a separate entry of the source.

Experiments:
in vitro [1] = conditions: African green monkey, Vero (African green monkey kidney) cells
in vitro [2] = conditions: human
in vitro [3] = conditions: human, uninfected PHA-stimulated human PBM cells
HIV-1/LAI = format: cell-based; conditions: for EC50: read-out: Anti-HIV-1 activity in human PBM cells EC50, HIV-1/LAI, median effect method; for activity against HIV-1 (in words): human PBM cells
human PBM cells = conditions: read-out: Cytotoxicity IC50 PBM; uninfected PHA-stimulated human PBM cells
[4] = test system: Vero (African green monkey kidney) cells; conditions: read-out: Cytotoxicity IC50 Vero
[5] = test system: CEM (T-lymphoblastoid cell line)
HIV-1 = conditions: ref De Corte 2005; Pauwels et al. 1993; cited from earlier work

Cc1ccc(N2C(=O)CCC2(C#N)c2ccc(OCc3ccccc3)cc2)cc1 (stereo not shown) [Compound 3g, 2-(4-Benzyloxyphenyl)-1-(4-methylphenyl)-5-oxo-2-pyrrolidinecarbonitrile]
IC50 (in vitro [1]): 53.9 µM | IC50 (in vitro [2]): 30.3 µM | IC50 (in vitro [3]): > 100 µM

Cc1ccc(NC(C#N)c2ccc(OCc3ccc(Cl)cc3Cl)cc2)cc1 (stereo not shown) [Compound 2h, 2-[4-(2,4-Dichlorobenzyloxy)phenyl]-2-(4-toluidino)acetonitrile]
EC50 (HIV-1/LAI): 3.1 µM | IC50 (in vitro [1]): 39.7 µM | IC50 (in vitro [2]): 11.7 µM | IC50 (in vitro [3]): 15 µM

NCC1(c2ccccc2)CCCN1C(=O)c1ccc(Br)cc1 (stereo not shown) [Compound 10]
IC50 (human PBM cells): > 100 µM | activity against HIV-1 (in words) (HIV-1/LAI): no inhibition | EC50 (HIV-1/LAI): > 100 µM | EC90 (HIV-1/LAI; read-out: Anti-HIV-1 activity in human PBM cells EC90, HIV-1/LAI, median effect method): > 100 µM | IC50 [4]: > 100 µM | IC50 [5]: 96.1 µM

Cc1ccc(N2C(=O)CCC2(CN)c2ccccc2)cc1 (stereo not shown) [Compound 5a, 5-Aminomethyl-1-(4-methylphenyl)-5-phenyl-2-pyrrolidinone]
IC50 (in vitro [1]): > 100 µM | IC50 (in vitro [2]): 53.6 µM | IC50 (in vitro [3]): 54.1 µM

Cc1ccc(N2C(=O)CCC2(C#N)c2ccc(OCc3ccc(Cl)cc3Cl)cc2)cc1 (stereo not shown) [Compound 3h, 2-[4-(2,4-Dichlorobenzyloxy)phenyl]-1-(4-methylphenyl)-5-oxo-2-pyrrolidinecarbonitrile]
IC50 (in vitro [1]): 21.8 µM | IC50 (in vitro [2]): 6.6 µM | IC50 (in vitro [3]): 9.7 µM

Cc1ccc(N2C(=O)CCC2(C#N)c2ccc(OC(C)C)cc2)cc1 (stereo not shown) [Compound 3e, 2-(4-Isopropoxyphenyl)-1-(4-methylphenyl)-5-oxo-2-pyrrolidinecarbonitrile]
IC50 (in vitro [1]): 46.5 µM | IC50 (in vitro [2]): 17 µM | IC50 (in vitro [3]): > 100 µM

Cc1ccc(N2C(=O)CCC2(CN)c2ccc(OCc3ccccc3)cc2)cc1 (stereo not shown) [Compound 5f, 5-Aminomethyl-5-(4-benzyloxyphenyl)-1-(4-methylphenyl)-2-pyrrolidinone]
IC50 (in vitro [1]): 12.3 µM | IC50 (in vitro [2]): 33.7 µM | IC50 (in vitro [3]): 15.9 µM

CC(=O)c1ccc(C)cc1NC(C(N)=O)c1c(Cl)cccc1Cl (stereo not shown) [loviride]
inhibitory concentration relative to the cytotoxic concentration (fold less) (HIV-1): 10,000 fold

Cc1cn([C@H]2C[C@H](N=[N+]=[N-])[C@@H](CO)O2)c(=O)[nH]c1=O [AZT, 3′-Azido-2′,3′-dideoxythymidine, reference compound]
IC50 (human PBM cells): > 100 µM

Cc1cc(C)cc(NC(C(N)=O)c2c(Cl)cccc2Cl)c1 (stereo not shown) [Compound 4, 2-(2,6-Dichlorophenyl)-2-(3,5-dimethylanilino)acetamide]
activity against HIV-1 (in words) (HIV-1/LAI): very potent; also recorded: very active | IC50 (in vitro [1]): 68.7 µM | IC50 (in vitro [2]): 5.8 µM | IC50 (in vitro [3]): 6.1 µM
